Reference: publication PMC2785482, “Combined Bezafibrate and Medroxyprogesterone Acetate: Potential Novel Therapy for Acute Myeloid Leukaemia” (PLoS ONE, 2009)

Target: T1, AKR1C3 (Homo sapiens, UniProt P42330)
T1 construct: Recombinant N-terminal His-tagged AKR1C3
Test: recombinant AKR1C3 phenanthrenequinone reduction, NADPH absorbance at […] nm
Type: biochemical

T1 sequence (P42330 whole entry): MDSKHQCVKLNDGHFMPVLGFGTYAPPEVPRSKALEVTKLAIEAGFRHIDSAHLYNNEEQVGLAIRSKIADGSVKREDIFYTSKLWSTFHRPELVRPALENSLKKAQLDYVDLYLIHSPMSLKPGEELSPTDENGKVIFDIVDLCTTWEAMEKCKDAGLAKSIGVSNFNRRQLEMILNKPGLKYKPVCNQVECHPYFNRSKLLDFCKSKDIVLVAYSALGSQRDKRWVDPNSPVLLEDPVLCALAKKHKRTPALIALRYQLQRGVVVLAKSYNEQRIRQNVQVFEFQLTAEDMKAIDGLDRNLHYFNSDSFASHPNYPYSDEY

## CC(=O)O[C@]1(C(C)=O)CC[C@H]2[C@@H]3C[C@H](C)C4=CC(=O)CC[C@]4(C)[C@H]3CC[C@@]21C [MPA, medroxyprogesterone acetate]
  IC50: 1100 nM
